Experimental data published in patent publication US10543194B2, “Organic compounds” (INTRA-CELLULAR THERAPIES, INC., priority 2014, dated 2020).

Key:
[1] = Pharmacokinetic study in mice (plasma and brain availability); type: in vivo; conditions: 10 mg/kg PO, compared to Bay 60-7550
Description: Mice are given a single oral dose of the compound of Example 22 (10 mg/kg, PO) and plasma and brain availability are measured (0.25-4 h) using HPLC and LC-MS using methods analogous to those described in Zhao et al., J. Chromatogr. B. Analyt. Technol. Biomed. Life Sci. (2005) 819(1):73-80 and Appels, N. M., et al., Rapid Commun. Mass Spec. 2005. 19(15): p. 2187-92.

[2] = tested on: cGMP levels in the striatum; assay: Measurements of cGMP in mouse brain in vivo; conditions: mice, 3 mg/kg i.p., 15, 30 or 60 min, compared to Bay 60-7550 (3 mg/kg)
Description: Striatum are dissected from the mouse brains and assayed for levels of cGMP. Trichloroacetic acid (TCA) is added to tissue samples for a final concentration of 5% TCA and the tissue is immediately sonicated in solution and stored on ice. The sonicated sample is centrifuged at 15,000×g for 20 min at 4° C. to remove the precipitated protein. To extract the TCA, the sample is washed three times in water saturated ether. The samples are then dried under vacuum (Speedvac, Savant SPD111V) at room temperature and re-suspended in 100 μL EIA buffer. […] Each sample is tested in duplicate in precoated assay plates alongside the 8-point cGMP standard dilutions. In addition, blank, maximum binding (B0) and non-specific binding wells are included. To all wells containing 50 μL sample or standard, equal volumes of AChE-linked cGMP and cGMP antibody are added. The plate is incubated at 4° C. for 18 hours. The wells are then washed 5 times with wash buffer. Detection reagent containing acetylthiocholine and […] is added and the plate is incubated at room temperature until the OD of the B0 wells is at least 0.5 as recorded by the SoftMax 4.8 software (Molecular Devices, Sunnyvale, Calif.). Each data point is converted to % B/B0 (100*[sample or standard OD−average non-specific binding)/(average B0−average non-specific binding)]). […]

Structure (SMILES): COc1ccc2[nH]c(=O)c3c(C)nn(-c4cc(OCC5CCC5)ccc4Cl)c3c2n1 [Example 22, 1-(2-Chloro-5-(cyclobutylmethoxy)phenyl)-8-methoxy-3-methyl-1H-pyrazolo[4,3-c][1,5]naphthyridin-4(5H)-one]
- brain access [1]: good brain access
- cGMP levels in the striatum [2]: increases cGMP levels in the striatum
